In US12146004B2, “Polymyxin compounds and uses thereof” (priority 2014, dated 2024):
Values after ≈ are worked out from the molar mass of the structure shown. Bridge positions count the residues as written; N and C are the ends. Square brackets hold non-standard residues; d marks the D form. Peptide text beside a SMILES is read from it. * marks the point of attachment. ξ: configuration not given here. dBip = N[C@H](Cc1ccc(-c2ccccc2)cc1)C(=O)O; X3 = CCCCCCCCN1CCNC[C@H]1C(=O)*; Thr(3ξ) = CC(O)[C@H](N)C(=O)O; X1 = CC(C)CN1CCNC[C@H]1C(=O)*; Dab = NCC[C@H](N)C(=O)O; Dap = NC[C@H](N)C(=O)O

Tests used:
Type in all cases: cell-based
[1] = system: Pseudomonas aeruginosa
Outline: (§1)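 Values are minimum inhibitory concentrations in μg/mL, measured across a panel of up to nine strains of each Gram-negative pathogen, some Polymyxin-elevated or resistant.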

[2] = system: Acinetobacter baumannii
Outline: as §1

[3] = system: Escherichia coli
Outline: as §1

[4] = system: Klebsiella pneumoniae
Outline: as §1

[5] = system: HK-2 cells
Text: Values are reported relative to Polymyxin B.

CC(C)C[C@@H]1NC(=O)[C@@H](CC2CCCCC2)NC(=O)[C@H](CCN)NC(=O)[C@@H](NC(=O)[C@H](CN)NC(=O)[C@@H](NC(=O)C(CCN)Cc2ccccc2)C(C)O)CCNC(=O)[C@H]([C@@H](C)O)NC(=O)[C@H](CCN)NC(=O)[C@H](CCN)NC1=O (single isomer, unassigned; isomer 2) [Example 35, 4-amino-2-benzylbutanoyl L-Thr-L-Dap-polymyxin [D-cyclohexylalanine]-6 heptapeptide. Isomer 2]
MIC P. aeruginosa 068 [1]: 1 µg/mL (≈ 0.885 µM)
MIC P. aeruginosa 070 [1]: 2 µg/mL (≈ 1.77 µM)
MIC P. aeruginosa ATCC 27853 [1]: 0.25 µg/mL (≈ 0.221 µM)
MIC P. aeruginosa CCUG 59347 [1]: 0.25 µg/mL (≈ 0.221 µM)
MIC A. baumanii 053 [2]: >64 µg/mL
MIC A. baumanii 056 [2]: 64 µg/mL (≈ 56.6 µM)
MIC A. baumanii ATCC BAA-747 [2]: 0.5 µg/mL (≈ 0.442 µM)
MIC A. baumanii NCTC 13424 [2]: 0.25 µg/mL (≈ 0.221 µM)
MIC E. coli 058 [3]: 4 µg/mL (≈ 3.54 µM)
MIC E. coli 061 [3]: 16 µg/mL (≈ 14.2 µM)
MIC E. coli ATCC 25922 [3]: 0.25 µg/mL (≈ 0.221 µM)
MIC E. coli NCTC 9001 [3]: 0.06 µg/mL (≈ 0.0531 µM)
MIC K. pneumoniae 063 [4]: 16 µg/mL (≈ 14.2 µM)
MIC K. pneumoniae 065 [4]: 0.5 µg/mL (≈ 0.442 µM)
MIC K. pneumoniae ATCC 4352 [4]: 0.125 µg/mL (≈ 0.111 µM)
MIC K. pneumoniae ATCC 13882 [4]: 0.06 µg/mL (≈ 0.0531 µM)
HK-2 IC50 [5]: 152 µg/mL

CC(C)C[C@@H]1NC(=O)[C@@H](CC2CCCCC2)NC(=O)[C@H](CCN)NC(=O)[C@@H](NC(=O)[C@H](CN)NC(=O)[C@@H](NC(=O)CC(N)C2CCCCC2)C(C)O)CCNC(=O)[C@H]([C@@H](C)O)NC(=O)[C@H](CCN)NC(=O)[C@H](CCN)NC1=O (single isomer, unassigned; isomer 1) [Example 32, 3-amino-3-cyclohexylpropanoyl L-Thr-L-Dap-polymyxin [D-cyclohexylalanine]-6 heptapeptide. Isomer 1]
MIC P. aeruginosa 068 [1]: 4 µg/mL (≈ 3.61 µM)
MIC P. aeruginosa 070 [1]: 4 µg/mL (≈ 3.61 µM)
MIC P. aeruginosa ATCC 27853 [1]: 0.5 µg/mL (≈ 0.451 µM)
MIC P. aeruginosa CCUG 59347 [1]: 0.5 µg/mL (≈ 0.451 µM)
MIC A. baumanii 056 [2]: 64 µg/mL (≈ 57.7 µM)
MIC A. baumanii ATCC BAA-747 [2]: 0.25 µg/mL (≈ 0.226 µM)
MIC A. baumanii NCTC 13424 [2]: 0.06 µg/mL (≈ 0.0541 µM)
MIC E. coli 058 [3]: 2 µg/mL (≈ 1.8 µM)
MIC E. coli 061 [3]: 16 µg/mL (≈ 14.4 µM)
MIC E. coli ATCC 25922 [3]: 0.25 µg/mL (≈ 0.226 µM)
MIC E. coli NCTC 9001 [3]: 0.125 µg/mL (≈ 0.113 µM)
MIC K. pneumoniae 063 [4]: 16 µg/mL (≈ 14.4 µM)
MIC K. pneumoniae ATCC 4352 [4]: 0.06 µg/mL (≈ 0.0541 µM)
MIC K. pneumoniae ATCC 13882 [4]: 0.25 µg/mL (≈ 0.226 µM)
HK-2 IC50 [5]: 73 µg/mL

CC(C)CC(CN)C(=O)N[C@H](C(=O)N[C@@H](CN)C(=O)N[C@H]1CCNC(=O)[C@H]([C@@H](C)O)NC(=O)[C@H](CCN)NC(=O)[C@H](CCN)NC(=O)[C@H](CC(C)C)NC(=O)[C@@H](Cc2ccc(Br)cc2)NC(=O)[C@H](CCN)NC1=O)C(C)O (single isomer, unassigned; isomer 2) [Example 14, 2-aminomethyl-4-methyl pentanoyl polymyxin L-Thr-L-Dap-polymyxin [D-(4-bromo Phe)]-6]heptapeptide. Isomer 2]
MIC P. aeruginosa 068 [1]: 8 µg/mL (≈ 6.93 µM)
MIC P. aeruginosa 070 [1]: 16 µg/mL (≈ 13.9 µM)
MIC P. aeruginosa ATCC 27853 [1]: 0.5 µg/mL (≈ 0.433 µM)
MIC A. baumanii 053 [2]: 32 µg/mL (≈ 27.7 µM)
MIC A. baumanii 056 [2]: 16 µg/mL (≈ 13.9 µM)
MIC A. baumanii ATCC BAA-747 [2]: 0.125 µg/mL (≈ 0.108 µM)
MIC E. coli 058 [3]: 4 µg/mL (≈ 3.46 µM)
MIC E. coli 059 [3]: 8 µg/mL (≈ 6.93 µM)
MIC E. coli 060 [3]: 8 µg/mL (≈ 6.93 µM)
MIC E. coli 061 [3]: 16 µg/mL (≈ 13.9 µM)
MIC E. coli ATCC 25922 [3]: 0.25 µg/mL (≈ 0.216 µM)
MIC K. pneumoniae 062 [4]: 8 µg/mL (≈ 6.93 µM)
MIC K. pneumoniae 063 [4]: 64 µg/mL (≈ 55.4 µM)
MIC K. pneumoniae 064 [4]: 8 µg/mL (≈ 6.93 µM)
MIC K. pneumoniae 065 [4]: 8 µg/mL (≈ 6.93 µM)
MIC K. pneumoniae 066 [4]: 8 µg/mL (≈ 6.93 µM)
MIC K. pneumoniae 067 [4]: >64 µg/mL
MIC K. pneumoniae ATCC 4352 [4]: 0.25 µg/mL (≈ 0.216 µM)
HK-2 IC50 [5]: 76 µg/mL

CCCCCCCCN1CCNC[C@H]1C(=O)N[C@H](C(=O)N[C@@H](CCN)C(=O)N[C@H]1CCNC(=O)[C@H]([C@@H](C)O)NC(=O)[C@H](CCN)NC(=O)[C@H](CCN)NC(=O)[C@H](CC(C)C)NC(=O)[C@@H](Cc2ccc(-c3ccccc3)cc2)NC(=O)[C@H](CCN)NC1=O)C(C)O (stereo partly shown) [Example 6] (X3-[Thr(3ξ)][Dab][Dab][Dab][dBip]L[Dab][Dab]T; lactam 3-C)
MIC P. aeruginosa 068 [1]: 2 µg/mL (≈ 1.58 µM)
MIC P. aeruginosa 070 [1]: 2 µg/mL (≈ 1.58 µM)
MIC A. baumanii 053 [2]: 8 µg/mL (≈ 6.33 µM)
MIC A. baumanii 056 [2]: 4 µg/mL (≈ 3.17 µM)
MIC A. baumanii ATCC BAA-747 [2]: 1 µg/mL (≈ 0.791 µM)
MIC E. coli 058 [3]: 1 µg/mL (≈ 0.791 µM)
MIC E. coli 059 [3]: 0.5 µg/mL (≈ 0.396 µM)
MIC E. coli 060 [3]: 1 µg/mL (≈ 0.791 µM)
MIC E. coli 061 [3]: 2 µg/mL (≈ 1.58 µM)
MIC E. coli ATCC 25922 [3]: 1 µg/mL (≈ 0.791 µM)
MIC K. pneumoniae 062 [4]: 4 µg/mL (≈ 3.17 µM)
MIC K. pneumoniae 063 [4]: 4 µg/mL (≈ 3.17 µM)
MIC K. pneumoniae 064 [4]: 2 µg/mL (≈ 1.58 µM)
MIC K. pneumoniae 065 [4]: 1 µg/mL (≈ 0.791 µM)
MIC K. pneumoniae 066 [4]: 0.5 µg/mL (≈ 0.396 µM)
MIC K. pneumoniae 067 [4]: 4 µg/mL (≈ 3.17 µM)
MIC K. pneumoniae ATCC 4352 [4]: 1 µg/mL (≈ 0.791 µM)
HK-2 IC50 [5]: 3 µg/mL

CC(C)C[C@@H]1NC(=O)[C@@H](Cc2ccccc2)NC(=O)[C@H](CCN)NC(=O)[C@@H](NC(=O)[C@H](CN)NC(=O)[C@@H](NC(=O)[C@@H]2CNCCN2CC(C)C)C(C)O)CCNC(=O)[C@H]([C@@H](C)O)NC(=O)[C@H](CCN)NC(=O)[C@H](CCN)NC1=O (stereo partly drawn) [Example C2, (S)-1-isobutyl piperazine-2-carbonyl-L-Thr-L-Dap-polymyxin B heptapeptide, reference compound] (X1-[Thr(3ξ)][Dap][Dab][Dab][dF]L[Dab][Dab]T; lactam 3-C)
MIC P. aeruginosa 068 [1]: 32 µg/mL (≈ 28.6 µM)
MIC P. aeruginosa ATCC 27853 [1]: 0.5 µg/mL (≈ 0.447 µM)
MIC A. baumanii 053 [2]: >256 µg/mL
MIC A. baumanii 056 [2]: 256 µg/mL (≈ 229 µM)
MIC A. baumanii ATCC BAA-747 [2]: 0.25 µg/mL (≈ 0.224 µM)
MIC E. coli 058 [3]: 8 µg/mL (≈ 7.16 µM)
MIC E. coli 059 [3]: 16 µg/mL (≈ 14.3 µM)
MIC E. coli 060 [3]: 8 µg/mL (≈ 7.16 µM)
MIC E. coli 061 [3]: 32 µg/mL (≈ 28.6 µM)
MIC E. coli ATCC 25922 [3]: 0.25 µg/mL (≈ 0.224 µM)
MIC K. pneumoniae 063 [4]: 128 µg/mL (≈ 115 µM)
MIC K. pneumoniae 064 [4]: 32 µg/mL (≈ 28.6 µM)
MIC K. pneumoniae 065 [4]: 16 µg/mL (≈ 14.3 µM)
MIC K. pneumoniae 066 [4]: 32 µg/mL (≈ 28.6 µM)
MIC K. pneumoniae 067 [4]: >256 µg/mL
MIC K. pneumoniae ATCC 4352 [4]: 0.125 µg/mL (≈ 0.112 µM)
HK-2 IC50 [5]: 316 µg/mL

CC(C)C[C@@H]1NC(=O)[C@@H](CC2CCCCC2)NC(=O)[C@H](CCN)NC(=O)[C@@H](NC(=O)[C@H](CN)NC(=O)[C@@H](NC(=O)CC(N)C2CCCCC2)C(C)O)CCNC(=O)[C@H]([C@@H](C)O)NC(=O)[C@H](CCN)NC(=O)[C@H](CCN)NC1=O (single isomer, unassigned; isomer 2) [Example 33, 3-amino-3-cyclohexylpropanoyl L-Thr-L-Dap-polymyxin [D-cyclohexylalanine]-6 heptapeptide. Isomer 2]
MIC P. aeruginosa 068 [1]: 8 µg/mL (≈ 7.22 µM)
MIC P. aeruginosa 070 [1]: 8 µg/mL (≈ 7.22 µM)
MIC P. aeruginosa ATCC 27853 [1]: 0.25 µg/mL (≈ 0.226 µM)
MIC P. aeruginosa CCUG 59347 [1]: 0.5 µg/mL (≈ 0.451 µM)
MIC A. baumanii 053 [2]: 64 µg/mL (≈ 57.7 µM)
MIC A. baumanii 056 [2]: 32 µg/mL (≈ 28.9 µM)
MIC A. baumanii ATCC BAA-747 [2]: 0.25 µg/mL (≈ 0.226 µM)
MIC A. baumanii NCTC 13424 [2]: 0.125 µg/mL (≈ 0.113 µM)
MIC E. coli 058 [3]: 2 µg/mL (≈ 1.8 µM)
MIC E. coli 061 [3]: 16 µg/mL (≈ 14.4 µM)
MIC E. coli ATCC 25922 [3]: 0.25 µg/mL (≈ 0.226 µM)
MIC E. coli NCTC 9001 [3]: 0.125 µg/mL (≈ 0.113 µM)
MIC K. pneumoniae 063 [4]: 64 µg/mL (≈ 57.7 µM)
MIC K. pneumoniae 065 [4]: 2 µg/mL (≈ 1.8 µM)
MIC K. pneumoniae ATCC 4352 [4]: 0.03 µg/mL (≈ 0.0271 µM)
MIC K. pneumoniae ATCC 13882 [4]: 0.5 µg/mL (≈ 0.451 µM)
HK-2 IC50 [5]: 75 µg/mL

CC(C)CC1CNCC(C(=O)N[C@H](C(=O)N[C@@H](CN)C(=O)N[C@H]2CCNC(=O)[C@H]([C@@H](C)O)NC(=O)[C@H](CCN)NC(=O)[C@H](CCN)NC(=O)[C@H](CC(C)C)NC(=O)[C@@H](Cc3ccc(-c4ccccc4)cc3)NC(=O)[C@H](CCN)NC2=O)C(C)O)C1 (single isomer, unassigned; isomer 1) [Example 3, (trans-5-(isobutyl-piperidine)-3-carbonyl L-Thr-L-Dap-polymyxin [D-(4-phenyl)Phe]-6] heptapeptide. Isomer 1]
MIC P. aeruginosa 068 [1]: 4 µg/mL (≈ 3.35 µM)
MIC P. aeruginosa 070 [1]: 4 µg/mL (≈ 3.35 µM)
MIC P. aeruginosa ATCC 27853 [1]: 1 µg/mL (≈ 0.839 µM)
MIC A. baumanii 053 [2]: 64 µg/mL (≈ 53.7 µM)
MIC A. baumanii 056 [2]: 4 µg/mL (≈ 3.35 µM)
MIC A. baumanii ATCC BAA-747 [2]: 2 µg/mL (≈ 1.68 µM)
MIC E. coli 058 [3]: 8 µg/mL (≈ 6.71 µM)
MIC E. coli 059 [3]: 8 µg/mL (≈ 6.71 µM)
MIC E. coli 060 [3]: 16 µg/mL (≈ 13.4 µM)
MIC E. coli 061 [3]: 32 µg/mL (≈ 26.8 µM)
MIC E. coli ATCC 25922 [3]: 0.5 µg/mL (≈ 0.419 µM)
MIC K. pneumoniae 062 [4]: >64 µg/mL
MIC K. pneumoniae 063 [4]: >64 µg/mL
MIC K. pneumoniae 064 [4]: 32 µg/mL (≈ 26.8 µM)
MIC K. pneumoniae 065 [4]: 32 µg/mL (≈ 26.8 µM)
MIC K. pneumoniae 067 [4]: >64 µg/mL
MIC K. pneumoniae ATCC 4352 [4]: 0.5 µg/mL (≈ 0.419 µM)
HK-2 IC50 [5]: 34 µg/mL
